Results published in the supplement of paper PMC11451515.

Test system: SEM cells
Assay: cell viability relative to DMSO control; higher = less cytotoxic
Conditions: 48 h
Summary of the method: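 Viability values are per-plate percentages of DMSO wells, with background from cell-free wells. Library compounds in DMSO were pin-dosed, in an 11-point threefold series from 47 μM to 0.79 nM, onto NOMO1 or SEM (500 cells/well) or P12-Ichikawa (1000 cells/well) leukemia cells in 1536-well plates (5 μl). Those cells had been adapted for at least four passages in each medium, and CellTiter-Glo One luminescence was read after 48 h at 37°C.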

[1] = HPLM + 10% dialyzed FBS, 0.000781 µM
[2] = HPLM + 10% dialyzed FBS, 0.00234 µM
[3] = HPLM + 10% dialyzed FBS, 0.00702 µM
[4] = HPLM + 10% dialyzed FBS, 0.0211 µM
[5] = HPLM + 10% dialyzed FBS, 0.0632 µM
[6] = HPLM + 10% dialyzed FBS, 0.19 µM
[7] = HPLM + 10% dialyzed FBS, 0.569 µM
[8] = HPLM + 10% dialyzed FBS, 1.71 µM
[9] = HPLM + 10% dialyzed FBS, 5.12 µM
[10] = HPLM + 10% dialyzed FBS, 15.4 µM
[11] = HPLM + 10% dialyzed FBS, 46.1 µM
[12] = RPMI 5 mM glucose + 10% FBS, 0.000781 µM
[13] = RPMI 5 mM glucose + 10% FBS, 0.00234 µM
[14] = RPMI 5 mM glucose + 10% FBS, 0.00702 µM
[15] = RPMI 5 mM glucose + 10% FBS, 0.0211 µM
[16] = RPMI 5 mM glucose + 10% FBS, 0.0632 µM
[17] = RPMI 5 mM glucose + 10% FBS, 0.19 µM
[18] = RPMI 5 mM glucose + 10% FBS, 0.569 µM
[19] = RPMI 5 mM glucose + 10% FBS, 1.71 µM
[20] = RPMI 5 mM glucose + 10% FBS, 5.12 µM
[21] = RPMI 5 mM glucose + 10% FBS, 15.4 µM
[22] = RPMI 5 mM glucose + 10% FBS, 46.1 µM
[23] = RPMI 5 mM glucose + 10% dialyzed FBS, 0.000781 µM
[24] = RPMI 5 mM glucose + 10% dialyzed FBS, 0.00234 µM
[25] = RPMI 5 mM glucose + 10% dialyzed FBS, 0.00702 µM
[26] = RPMI 5 mM glucose + 10% dialyzed FBS, 0.0211 µM
[27] = RPMI 5 mM glucose + 10% dialyzed FBS, 0.0632 µM
[28] = RPMI 5 mM glucose + 10% dialyzed FBS, 0.19 µM
[29] = RPMI 5 mM glucose + 10% dialyzed FBS, 0.569 µM
[30] = RPMI 5 mM glucose + 10% dialyzed FBS, 1.71 µM
[31] = RPMI 5 mM glucose + 10% dialyzed FBS, 5.12 µM
[32] = RPMI 5 mM glucose + 10% dialyzed FBS, 15.4 µM
[33] = RPMI 5 mM glucose + 10% dialyzed FBS, 46.1 µM

Compound	cell viability [1]	cell viability [2]	cell viability [3]	cell viability [4]	cell viability [5]	cell viability [6]	cell viability [7]	cell viability [8]	cell viability [9]	cell viability [10]	cell viability [11]	cell viability [12]	cell viability [13]	cell viability [14]	cell viability [15]	cell viability [16]	cell viability [17]	cell viability [18]	cell viability [19]	cell viability [20]	cell viability [21]	cell viability [22]	cell viability [23]	cell viability [24]	cell viability [25]	cell viability [26]	cell viability [27]	cell viability [28]	cell viability [29]	cell viability [30]	cell viability [31]	cell viability [32]	cell viability [33]
OC[C@H]1OCC(O1)[N@@]2C=CC(N)=NC2=O (stereo not given in full)	108%	81.3%	90.7%	106%	115%	103%	107%	99.3%	96.3%	102%	96.6%	73.1%	62.4%	77.8%	77.5%	78%	84.2%	80%	64.4%	70.7%	63.8%	56.3%	96.7%	95.8%	96.3%	106%	113%	110%	114%	103%	106%	101%	88.8%
CC/1=C(/N2[C@H](SC1)[C@H](NC(=O)[C@H](N)\C3=C\C\C=C/C3)C2=O)C(O)=O	79.3%	87.2%	94%	86.5%	82.9%	97.1%	95.8%	91.2%	93.5%	111%	102%	95.8%	106%	120%	98.1%	115%	120%	111%	118%	107%	113%	120%	88.8%	112%	98%	87.4%	109%	117%	114%	107%	124%	114%	113%
Cn1c(CNc2ccc(C(=N)N)cc2)nc2cc(C(=O)N(CCC(=O)O)c3ccccn3)ccc21	87.6%	96.3%	95.2%	106%	101%	103%	102%	117%	104%	121%	116%	73.1%	99.2%	98.6%	97.6%	102%	96.6%	99.6%	93.2%	95.6%	110%	103%	65.6%	98%	95.8%	114%	110%	104%	97.7%	122%	120%	118%	119%
Cc1cn([C@@H]2O[C@H](CO)[C@@H](O)[C@@H]2F)c(=O)[nH]c1=O	74.5%	103%	102%	101%	110%	104%	110%	116%	116%	104%	95%	101%	102%	103%	93.4%	122%	107%	108%	113%	117%	122%	119%	77%	111%	92.3%	109%	127%	122%	108%	105%	124%	93.5%	92.7%
COc1cc2ncnc(Nc3cc(Br)c(O)c(Br)c3)c2cc1OC	80%	90.5%	97.8%	98.4%	109%	101%	113%	109%	104%	106%	78%	112%	107%	118%	121%	125%	101%	131%	124%	108%	102%	85.6%	82.8%	99.2%	110%	97.8%	113%	99.7%	103%	108%	98.5%	89.1%	61.6%
NC/1=N/C2=C([NH]C=N2)C(=S)N1	110%	57%	106%	115%	117%	114%	108%	117%	113%	110%	24.2%	114%	81.5%	117%	105%	119%	114%	102%	103%	102%	108%	16.1%	95.1%	81.6%	103%	118%	113%	103%	81%	37.7%	29.6%	33.5%	9.21%
CC(C)C(=O)Nc1ccc([N+](=O)[O-])c(C(F)(F)F)c1	103%	112%	118%	129%	122%	136%	131%	134%	138%	130%	130%	118%	115%	119%	136%	124%	140%	135%	128%	123%	116%	121%	125%	119%	133%	144%	127%	146%	142%	157%	146%	139%	122%
Cc1cc(C(C)(C)C)c(O)c(C)c1CC1=NCCN1	62.6%	80.2%	75.4%	83%	76.8%	83.3%	86.9%	91.9%	66.6%	60.3%	62.5%	83.8%	82.1%	91.1%	83.6%	86.7%	100%	102%	101%	53.1%	51.8%	59.3%	90.3%	77.7%	82.2%	89.3%	93.3%	95.4%	87.5%	105%	77.2%	57.9%	55.9%
COc1cc2ncnc(Nc3ccc(F)c(Cl)c3)c2cc1NC(=O)/C=C/CN1CCCCC1	94.2%	112%	110%	102%	105%	99.1%	94.6%	85.5%	76.7%	71.4%	42.4%	119%	129%	120%	119%	122%	117%	124%	91.3%	88.6%	80.2%	42.3%	97.9%	85.6%	96.4%	116%	93.3%	87%	104%	76.6%	77.6%	66.7%	41.3%
COc1ccc(-c2nc(N3CCOCC3)c3sc(CN(C)c4ncc(C(=O)NO)cn4)cc3n2)cn1	88.4%	101%	67.8%	34.5%	6.86%	6.43%	6.72%	6.14%	6.01%	5.89%	4.98%	90.5%	83.6%	49.9%	20.5%	6.31%	6.48%	5.87%	5.83%	6.2%	5.41%	3.98%	97%	108%	78.3%	37.7%	7.5%	7.3%	6.64%	6.58%	5.98%	6.08%	4.38%
CCC(C)(Oc1ccc(C2(c3ccc(OC(C)(CC)C(=O)O)cc3)CCCCC2)cc1)C(=O)O (stereo not given)	103%	96.8%	108%	103%	109%	108%	105%	108%	101%	109%	77.9%	103%	101%	119%	113%	108%	111%	109%	91.3%	104%	102%	77.7%	117%	101%	99.1%	108%	107%	102%	118%	110%	114%	113%	86.6%
C=C(C)[C@H]1Cc2c(ccc3c2O[C@@H]2COc4cc(OC)c(OC)cc4[C@@H]2C3=O)O1	96%	85.9%	103%	85.1%	75.5%	92.8%	104%	94.5%	57.1%	22.6%	14.2%	79.7%	94.7%	89.6%	108%	60.1%	89%	87.8%	80.2%	40.3%	15.8%	10%	101%	106%	125%	106%	77%	109%	91.4%	86.7%	40.4%	23.1%	13.3%
CC(C)C[C@H](NC(=O)[C@H](CCc1ccccc1)NC(=O)CN1CCOCC1)C(=O)N[C@@H](Cc1ccccc1)C(=O)N[C@@H](CC(C)C)C(=O)[C@@]1(C)CO1	84.6%	86.5%	100%	8.14%	7.13%	7.08%	6.63%	5.14%	4.16%	1.67%	1.47%	97.5%	102%	65.7%	8.2%	7.68%	6.95%	7.46%	4.9%	2.81%	1.52%	1.37%	72.1%	81.7%	80.6%	8.46%	7.46%	7.29%	6.73%	4.71%	3.02%	1.73%	1.54%
C[S+](=O)([O-])N1CCc2c(-c3cnc(N)nc3)nc(N3CCOCC3)nc21	88.6%	102%	91.6%	97.5%	100%	96.3%	86%	63.4%	62.7%	43.5%	30.5%	68.5%	82.1%	70.4%	71.4%	75.3%	66.3%	61%	50.5%	38.9%	22.2%	18.3%	88.7%	105%	113%	104%	92.9%	104%	98%	65.9%	55.3%	33.5%	22.2%
CN1\C(=C(\O)C2=CC=CC=C2[S+]1([O-])=O)C(=O)NC3=NC=C(C)S3	94.9%	94.8%	98.2%	103%	87.8%	85.2%	90.2%	83.1%	99.9%	96.7%	102%	74.8%	81.5%	94.5%	97.7%	78%	90.2%	103%	78.3%	104%	84%	91.3%	77.4%	99.6%	94.6%	97%	80.7%	107%	99.9%	95.1%	106%	107%	108%
